Source: US20240174638A1, “HETEROARYL DERIVATIVES AS APELIN RECEPTOR AGONISTS” (RESEARCH TRIANGLE INSTITUTE, priority 2021, published 2024)

Legend:
[1] = tested on: bleomycin-induced pulmonary fibrosis in C57BL/6 mice; assay: 21-day non-GLP prophylactic bleomycin-induced pulmonary fibrosis study (oropharyngeal bleomycin; lung weight, BAL leukocytes); format: in vivo, mouse
Protocol: The objective of this non-GLP study was to evaluate the prophylactic efficacy of EXAMPLE 22 in a 21-day model of bleomycin-induced pulmonary fibrosis in mice.
Mice were administered bleomycin (Catalog number C-61703-323-22, lot number D011495AA, Hospira) via oropharyngeal route to induce lung fibrosis.
Bleomycin-induced animals were treated twice daily with either of the three different doses of EXAMPLE 22 or pirfenidone starting from a day prior to disease induction and continued till study termination. Study animals were harvested on day 21 post-bleomycin administration. As an end point analysis, fibrosis symptoms such as body weight, absolute lung weight, lung weight normalized to body weight, and total leukocytes in BAL fluid were evaluated and compared with vehicle-treated mice.
One week prior to study initiation, 88 C57BL/6 mice, six to eight weeks of age were obtained from Simonsen Laboratories (Gilroy, CA). Animals were weighed prior to study initiation and 60 animals were randomized into groups such that mean body weights were similar for the different groups. Remaining animals with lower or higher body weight were not included into the study. Food and water was provided ad libitum, with a light/dark cycle of 12 hours.

[2] = tested on: Escherichia coli WP2 uvrA (pKM101)
[3] = prophylactic treatment twice daily, 21-day

O=C(O)C[C@H](CCN1CCCC(F)(F)C1)NC(=O)c1cc(-c2ccccc2C(F)(F)F)n(-c2nccs2)n1 [Example 22, (3S)-5-(3,3-difluoropiperidin-1-yl)-3-{[1-(1,3-thiazol-2-yl)-5-[2-(trifluoromethyl)phenyl]-1H-pyrazol-3-yl]formamido}pentanoic acid]
effectiveness compared across doses ([1]; 30 mg/kg): somewhat more effective | normalized lung weights ([1]; normalized to body weight, prophylactic treatment twice daily, 21-day): reduced absolute and normalized lung weights | absolute lung weights [1, 3]: reduced absolute and normalized lung weights | total number of leukocytes from bronchoalveolar lavage (BAL) fluid [1, 3]: decreased total number of leukocytes | overt symptoms associated with bleomycin administration ([1]; prophylactic treatment twice daily, 21-day non-GLP study): improved the overt symptoms | Cytotoxicity Code [2]: N | cytotoxicity to tester strain [2]: No cytotoxicity was observed | dose related increase of revertant colonies [2]: No dose related increase | increase in mean number of revertant colonies vs negative/solvent control ([2]; Escherichia coli): < 2 fold
